# Data: patent publication US9714213B2, “4-aminomethylbenzoic acid derivative” (TOA EIYO LTD., priority 2013, dated 2017)
# Where two headings read alike, the source gives them in different places.
# What was measured:
# rat ventral aorta = assay: Blood vessel relaxation activity, phenylephrine-contracted rat ventral aorta ring specimen; conditions: relaxation of 1 μmol/L phenylephrine contraction; EC50 without ODQ / EC50 with 10 μmol/L ODQ
# Procedure: A representative compound of the present invention was assayed for blood vessel relaxation activity according to the Test Example described below. In the assay, a rat (male, SD) was phlebotomized from the upper part of the heart under pentobarbital (30 mg/kg) anesthesia, and the ventral aorta was extracted. The connective tissue adhering around the blood vessel in the ventral aorta was removed in an ice-cooled Krebs-Henseleit solution (KH solution) (118 mmol/L sodium chloride, 4.7 mmol/L potassium chloride, 1.2 mmol/L magnesium sulfate, 1.2 mmol/L potassium dihydrogenphosphate, 25 mmol/L sodium hydrogen carbonate, 2.5 mmol/L calcium chloride and 10 mmol/L glucose, pH 7.4). Then, a ring specimen of 2 mm length was prepared, and fixed in 5 mL organ bath filled with the KH solution. The KH solution was maintained at 37° C., and a mixed gas of 95% O2 and 5% CO2 was ventilated. The specimen was stabilized with 1 g of the resting tension for 1 hour. In the meantime, the KH solution was exchanged twice. The tension of the specimen was recorded with a multichannel recorder through a pickup and an amplifier. After stabilization of the specimen, contraction was induced with 1 μmol/L phenylephrine (Phe), and cumulative administration of each compound (0.001, 0.01, 0.03, 0.1, 0.3, 1, 3, 10, 30, 100, 1000, 10000 nmol/L) was carried out. In the case of evaluation at the time of containing ODQ, 10 μmol/L ODQ was added 10 minutes before administration of Phe, and similar evaluation was performed.
# EC50 value was calculated by Four-parameter Logistic Model with Assay Explorer (Accelrys, Inc.). Meanwhile, the solution of the test compound was prepared by dissolving the compound in DMSO to prepare solutions having the concentration of each test compound 1000 times higher than the final concentration.
# human sGC = target: T1, human sGC (Homo sapiens, UniProt Q02153); assay: Maximum effect of sGC activation (intracellular Ca2+, Fura2-AM) in CHO-K1 cells stably expressing human sGC and mouse CNGA2; assay type: cell-based; conditions: increase rate of sGC activity vs DMSO control, test compound 10 μmol/L
# T1 construct: expressed in transfected cells; host or cells: CHO-K1 (Chinese hamster ovary) cells
# T1 sequence (Q02153 1-619): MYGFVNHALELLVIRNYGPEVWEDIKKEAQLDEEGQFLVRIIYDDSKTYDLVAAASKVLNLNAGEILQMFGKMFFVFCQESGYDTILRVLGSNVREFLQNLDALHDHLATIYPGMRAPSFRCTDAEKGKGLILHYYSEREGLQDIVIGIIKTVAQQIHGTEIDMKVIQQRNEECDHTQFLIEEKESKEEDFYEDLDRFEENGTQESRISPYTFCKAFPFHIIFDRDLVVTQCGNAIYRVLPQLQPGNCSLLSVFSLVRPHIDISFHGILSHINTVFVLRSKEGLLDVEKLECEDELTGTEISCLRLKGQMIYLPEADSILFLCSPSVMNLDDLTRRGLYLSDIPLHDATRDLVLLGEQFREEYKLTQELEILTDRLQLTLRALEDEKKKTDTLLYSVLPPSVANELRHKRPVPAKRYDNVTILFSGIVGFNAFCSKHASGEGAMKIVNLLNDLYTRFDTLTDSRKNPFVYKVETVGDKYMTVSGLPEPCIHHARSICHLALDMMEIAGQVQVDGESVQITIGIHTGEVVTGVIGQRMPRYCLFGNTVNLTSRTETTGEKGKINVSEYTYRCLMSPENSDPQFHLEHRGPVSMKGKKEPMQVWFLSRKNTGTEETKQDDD
# T1 sequence (Q02108 1-690 partner): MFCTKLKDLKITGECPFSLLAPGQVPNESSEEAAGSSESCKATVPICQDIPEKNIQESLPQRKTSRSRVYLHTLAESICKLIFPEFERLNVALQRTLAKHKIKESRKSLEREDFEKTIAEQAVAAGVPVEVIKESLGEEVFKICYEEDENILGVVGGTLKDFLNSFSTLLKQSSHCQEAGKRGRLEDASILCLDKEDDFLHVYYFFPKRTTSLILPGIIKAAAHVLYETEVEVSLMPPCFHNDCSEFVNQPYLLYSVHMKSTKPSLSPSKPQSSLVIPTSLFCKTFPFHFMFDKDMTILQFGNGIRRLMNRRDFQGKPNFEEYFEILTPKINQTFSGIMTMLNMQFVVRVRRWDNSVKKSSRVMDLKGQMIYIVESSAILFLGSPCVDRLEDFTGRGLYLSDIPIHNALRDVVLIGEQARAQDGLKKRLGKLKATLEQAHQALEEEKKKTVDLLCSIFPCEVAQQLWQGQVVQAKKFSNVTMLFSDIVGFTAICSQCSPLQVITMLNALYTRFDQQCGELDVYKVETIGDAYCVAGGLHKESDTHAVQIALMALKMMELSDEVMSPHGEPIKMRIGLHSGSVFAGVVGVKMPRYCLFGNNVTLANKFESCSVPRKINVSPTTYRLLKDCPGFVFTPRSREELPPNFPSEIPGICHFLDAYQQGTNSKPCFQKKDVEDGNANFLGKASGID
# Procedure: For the assay, chinese hamster ovary cells (CHO-K1 cells) stably expressing both α and β subunits of human sGC and mouse cyclic nucleotide-gated channel (CNGA2) were used.
# The CHO-K1 cells stably expressing human sGC and mouse CNGA2 was cultured at 37° C. on F-12 medium containing 10% (v/v) fetal bovine serum (FBS), penicillin (100 U/mL), streptomycin (100 μg/mL), G418 (250 μg/mL) and Zeocin (250 μg/mL). The cells were suspended in a culture medium, seeded on a 96 well plate, and then cultured at 37° C. for 24 hours. The cells were washed with Assay buffer 1 (140 mmol/L sodium chloride, 5 mmol/L potassium chloride, 0.5 mmol/L magnesium chloride, 0.01 mmol/L calcium chloride, 10 mmol/L glucose, 0.4 mmol/L magnesium sulfate, 10 mmol/L 4-(2-hydroxyethyl)piperazin-1-ylethanesulfonic acid and 125 μmol/L sulfinpyrazone, pH 7.4), and then added a solution containing Fura2-AM, a fluorescent Ca^2+ indicator, in Assay buffer 1 at […] concentration thereto as an indicator solution, and cultured at 37° C. for 60 minutes. The culture medium was removed, and the cells were washed with Assay buffer 1, and then added a solution containing the test compound thereto, and cultured at room temperature for 10 minutes. A plate was placed onto a fluorometer (FlexStation II, Molecular Devices), and the intracellular calcium concentration was determined as the ratio of fluorescent intensity, obtained from measurement using 340 nm and 380 nm as excitation wavelength and 510 nm as detection wavelength.
# The solution of the test compound was prepared by dissolving each test compound in DMSO at 10 mmol/L, and then diluting the solution for the test concentration at 10 μmol/L with Assay buffer (140 mmol/L sodium chloride, 5 mmol/L potassium chloride, 0.5 mmol/L magnesium chloride, 1 mmol/L calcium chloride, 10 mmol/L glucose, 0.4 mmol/L magnesium sulfate, 10 mmol/L 4-(2-hydroxyethyl)piperazin-1-ylethanesulfonic acid, […] sulfinpyrazone, 100 μmol/L isobutyl methyl xanthine, and 10 μmol/L 1H-[1,2,4]-oxadiazol[4,3-a]quinoxaline-1-one (hereinafter, ODQ), pH 7.4). The evaluation in the absence of ODQ was performed similarly, except that ODQ was not added to Assay buffer 2. As a control solution, a DMSO solution was used instead of the test compound solution.
# The activity of the test compound defined as the increase rate of the sGC activity (%) at the time of adding the solution of the test compound with respect to the sGC activity at the time of adding the control solution, was calculated by dividing the fluorescent intensity ratio at the time of adding the test compound by the fluorescent intensity ratio of the control solution, and subtracting the sGC activity at the time of adding the control solution (100%).
# If sGC is activated in this assay, intracellular cGMP concentration increases and accordingly intracellular Ca^2+ concentration is increased by opening of CNGA2. Accordingly, sGC activation can be measured as the change of Ca^2+ concentration in the cell. […] Accordingly, it is possible to evaluate maximum sGC activation effect including heme-dependent activation in the absence of ODQ, and also possible to evaluate heme independent sGC activation effect in the presence of ODQ.
# [1] = 10 μmol/L ODQ present, read-out: Emax (%) ODQ+ (Heme-independent)
# [2] = absence of ODQ, read-out: Emax (%) ODQ− (Heme-dependent)
SMILES,EC50 Ratio (ODQ−/ODQ+) (rat ventral aorta),Emax at 10 µM (human sGC; [1]),Emax at 10 µM (human sGC; [2])
O=C(O)CCCCN(Cc1ccc(C(=O)O)cc1)CC(OCc1ccc(CCc2ccccc2)cc1)c1cccs1 (stereo not shown) [Example 19],6.20,122%,114%
"O=C(O)CCCCN(Cc1ccc(C(=O)O)cc1)CC(OCc1ccc(CCc2ccccc2)cc1)c1ccsc1 (stereo not shown) [Example 26, 4-{[N-(4-Carboxybutyl)-N-[2-[4-(2-phenylethyl)benzyloxy]-2-(3-thienyl)ethyl]amino]methyl}benzoic acid]",7.72,110%,92.6%
"O=C(O)CCCCN(Cc1ccc(C(=O)O)cc1)C[C@H](OCc1ccc(CCc2ccc(Cl)cc2)cc1)c1ccccc1 [Example 40, (−)-4-{[N-(4-Carboxybutyl)-N-[(2R)-2-[4-[2-(4-chlorophenyl)ethyl]benzyloxy]-2-phenylethyl]amino]methyl}benzoic acid]",–,120%,127%
CC(C)(CCN(Cc1ccc(C(=O)O)cc1)CC(OCc1ccc(CCc2ccccc2)cc1)c1ccccc1)CC(=O)O (stereo not shown) [Example 18],–,129%,96.2%
"O=C(O)CCCCCN(Cc1ccc(C(=O)O)cc1)CC(OCc1ccc(CCc2ccccc2)cc1)c1ccccc1 (stereo not shown) [Example 15, 4-{[N-(5-Carboxypentyl)-N-[2-[4-(2-phenylethyl)benzyloxy]-2-phenylethyl]amino]methyl}benzoic acid]",–,87.7%,89.1%
"CC(C)(C)c1cccc(COC(CN(CCCCC(=O)O)Cc2ccc(C(=O)O)cc2)c2ccccc2)c1 (stereo not shown) [Example 10, 4-{[N-[2-(3-tert-Butylbenzyloxy)-2-phenylethyl]-N-(4-carboxybutyl)amino]methyl}benzoic acid]",–,141%,103%
"O=C(O)CCCCN(Cc1ccc(C(=O)O)cc1)CC(OCc1ccc(CCc2ccccc2)cc1)c1cccc(Cl)c1 (stereo not shown) [Example 22, 4-{[N-(4-Carboxybutyl)-N-[2-(3-chlorophenyl)-2-[4-(2-phenylethyl)benzyloxy]ethyl]amino]methyl}benzoic acid]",–,115%,106%
"CC(C)(C)c1cccc(CO[C@@H](CN(CCCCC(=O)O)Cc2ccc(C(=O)O)cc2)c2cccc(Cl)c2)c1 [Example 34, (−)-4-{[N-[(2R)-2-(3-tert-Butylbenzyloxy)-2-(3-chlorophenyl)ethyl]-N-(4-carboxybutyl)amino]methyl}benzoic acid]",–,125%,82.3%
"O=C(O)CCCCN(Cc1ccc(C(=O)O)cc1)CC(OCc1ccc(CCc2ccccc2)s1)c1cccc(Cl)c1 (stereo not shown) [Example 24, 4-{[N-(4-Carboxybutyl)-N-[2-(3-chlorophenyl)-2-[5-(2-phenylethyl)thiophen-2-ylmethoxy]ethyl]amino]methyl}benzoic acid]",–,132%,150%
"O=C(O)CCCCN(Cc1ccc(C(=O)O)cc1)C[C@H](OCc1ccc(CCc2ccccc2)s1)c1ccccc1 [Example 43, (−)-4-{[N-(4-Carboxybutyl)-N-[(2R)-2-[5-(2-phenylethyl)thiophen-2-ylmethoxy]-2-phenylethyl]amino]methyl}benzoic acid]",–,124%,108%
"CC(C)(C)c1cc(CO[C@@H](CN(CCCCC(=O)O)Cc2ccc(C(=O)O)cc2)c2ccccc2)cc(C(C)(C)C)c1 [Example 46, (−)-4-{[N-(4-Carboxybutyl)-N-[(2R)-2-(3,5-di-tert-butylbenzyloxy)-2-phenylethyl]amino]methyl}benzoic acid]",–,108%,161%
"N#Cc1cccc([C@H](CN(CCCCC(=O)O)Cc2ccc(C(=O)O)cc2)OCc2ccc(CCc3ccccc3)cc2)c1 [Example 30, (−)-4-{[N-(4-Carboxybutyl)-N-[(2R)-2-(3-cyanophenyl)-2-[4-(2-phenylethyl)benzyloxy]ethyl]amino]methyl}benzoic acid]",–,129%,83.4%
"O=C(O)CCCCN(CCc1ccccc1OCc1ccc(CCc2ccccc2)cc1)Cc1ccc(C(=O)O)cc1 [Cinaciguat, reference compound]",12.4,–,–
"O=C(O)CCCCN(Cc1ccc(C(=O)O)cc1)CC(OCc1cccc(CCc2ccccc2)c1)c1ccccc1 (stereo not shown) [Example 60, 4-{[N-(4-Carboxybutyl)-N-[2-[3-(2-phenylethyl)benzyloxy]-2-phenylethyl]amino]methyl}benzoic acid]",–,88.9%,110%
"O=C(O)CCCCN(Cc1ccc(C(=O)O)cc1)C[C@H](OCc1ccc(CCC2CCCC2)cc1)c1ccccc1 [Example 39, (−)-4-{[N-(4-Carboxybutyl)-N-[(2R)-2-[4-(2-cyclopentylethyl)benzyloxy]-2-phenylethyl]amino]methyl}benzoic acid]",–,142%,148%
